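Exposure lasted 48 hours, with cells grown in 96-well plates and compounds tested at five concentrations. GI50 = concentration required for 50% inhibition of growth.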 The source made the active and inactive calls. Rule as the data show it: active = GI50 up to about 1.1 µM and inactive = higher.
Key:
Experiment in all cases: DTP human tumour cell line panel, 48 h
Hs-578T = system: Hs-578T
IGROV-1 = system: IGROV-1
SN12C = system: SN12C
BT-549 = system: BT-549
MDA-MB-231 = system: MDA-MB-231
A498 = system: A498
K562 = system: K562
HOP-62 = system: HOP-62
UACC-257 = system: UACC-257
SR = system: SR
SK-OV-3 = system: SK-OV-3
PC-3 = system: PC-3
SNB-19 = system: SNB-19
NCI-H23 = system: NCI-H23
RPMI-8226 = system: RPMI-8226
SF-539 = system: SF-539
TK-10 = system: TK-10
MDA-N = system: MDA-N
HCC 2998 = system: HCC 2998
HL-60 = system: HL-60

Measured: GI50

COc1cccc2cc(C(=O)Nc3ccccc3)c(=N)oc12
inactive: Hs-578T 10.4 µM | IGROV-1 49.5 µM | SN12C > 100 µM | BT-549 > 100 µM | MDA-MB-231 13 µM | A498 > 100 µM | K562 > 100 µM | HOP-62 > 58.5 µM | UACC-257 > 100 µM | SR > 71 µM | SK-OV-3 > 64 µM | PC-3 > 100 µM | SNB-19 > 75.9 µM | NCI-H23 > 69.2 µM | RPMI-8226 > 100 µM | SF-539 > 100 µM | TK-10 > 100 µM | MDA-N > 100 µM

CC(C)N/C(=N\C#N)NS(=O)(=O)c1cnccc1NC1CCCCCCC1
inactive: Hs-578T > 100 µM | IGROV-1 > 100 µM | SN12C > 100 µM | BT-549 > 100 µM | MDA-MB-231 > 100 µM | A498 > 100 µM | K562 > 100 µM | HOP-62 > 100 µM | UACC-257 > 100 µM | SR > 100 µM | HCC 2998 > 100 µM | SK-OV-3 > 100 µM | PC-3 > 100 µM | SNB-19 > 100 µM | NCI-H23 > 100 µM | RPMI-8226 39.8 µM | TK-10 > 100 µM | MDA-N > 100 µM

N#CC(C#N)/N=N/c1ccc(-c2nc3ccccc3o2)cc1
inactive: Hs-578T 42 µM | IGROV-1 19.4 µM | SN12C 13.2 µM | BT-549 12.1 µM | MDA-MB-231 17.8 µM | A498 13.9 µM | K562 8.61 µM | HOP-62 16.6 µM | UACC-257 4.41 µM | SR 16.2 µM | HCC 2998 1.22 µM | SK-OV-3 18.6 µM | PC-3 8 µM | SNB-19 24.7 µM | NCI-H23 10.1 µM | SF-539 12.2 µM | TK-10 11 µM | MDA-N 17.2 µM | HL-60 5.48 µM

CCCCCCCCCCCCOC1C(COCCN2CCCC2)OC2OC(C)(C)OC21 (centres undefined)
active: HL-60 0.927 µM
inactive: Hs-578T 1.76 µM | IGROV-1 1.72 µM | SN12C 1.82 µM | BT-549 1.66 µM | MDA-MB-231 1.5 µM | A498 14 µM | K562 1.23 µM | HOP-62 1.8 µM | UACC-257 1.75 µM | SR 1.14 µM | SK-OV-3 1.63 µM | PC-3 1.65 µM | SNB-19 2.94 µM | NCI-H23 1.72 µM | RPMI-8226 2.52 µM | SF-539 1.76 µM | TK-10 1.66 µM | MDA-N 1.41 µM

CC(C)(C)c1cc(C2=NNC(c3ccccc3)C2)cc(C(C)(C)C)c1O (centres undefined)
inactive: Hs-578T 19.1 µM | IGROV-1 15.7 µM | SN12C 16.6 µM | BT-549 17.1 µM | MDA-MB-231 14.2 µM | A498 15.3 µM | HOP-62 17.1 µM | UACC-257 14.3 µM | SR 5.58 µM | SK-OV-3 18.5 µM | PC-3 14.6 µM | SNB-19 18 µM | NCI-H23 17.2 µM | RPMI-8226 15 µM | SF-539 19.8 µM | TK-10 15.9 µM | MDA-N 12.6 µM

Nc1nc(-c2ccccc2)c(-c2ccccc2)c(-c2nc(N)nc(-c3ccccc3)c2-c2ccccc2)n1
inactive: Hs-578T > 100 µM | IGROV-1 > 100 µM | SN12C > 100 µM | BT-549 > 100 µM | MDA-MB-231 > 100 µM | A498 75.5 µM | K562 > 100 µM | HOP-62 > 100 µM | UACC-257 > 100 µM | SR > 100 µM | HCC 2998 49 µM | SK-OV-3 > 100 µM | PC-3 > 100 µM | SNB-19 > 100 µM | NCI-H23 > 100 µM | SF-539 > 100 µM | TK-10 > 100 µM | MDA-N 75.7 µM | HL-60 > 100 µM

O=C1NC(S(=O)(=O)O)=NNC12c1ccccc1-c1ccccc12
inactive: Hs-578T > 10 µM | IGROV-1 > 10 µM | SN12C > 10 µM | BT-549 > 10 µM | MDA-MB-231 > 10 µM | K562 > 10 µM | HOP-62 > 10 µM | UACC-257 > 10 µM | SR > 10 µM | HCC 2998 > 10 µM | SK-OV-3 > 10 µM | PC-3 > 10 µM | SNB-19 > 10 µM | NCI-H23 > 10 µM | RPMI-8226 > 10 µM | SF-539 > 10 µM | TK-10 > 10 µM | MDA-N > 10 µM | HL-60 > 10 µM

COC(=O)NN(C(=O)OC)c1c(-c2ccccc2)nc(SC)n1N
inactive: Hs-578T > 100 µM | IGROV-1 > 100 µM | SN12C > 100 µM | BT-549 > 100 µM | MDA-MB-231 > 100 µM | A498 > 100 µM | K562 > 100 µM | HOP-62 > 100 µM | UACC-257 > 100 µM | SR > 100 µM | HCC 2998 > 100 µM | PC-3 > 100 µM | SNB-19 > 100 µM | NCI-H23 > 100 µM | RPMI-8226 > 100 µM | SF-539 > 100 µM | TK-10 > 100 µM | MDA-N > 100 µM | HL-60 > 100 µM

NC(=O)NCCCC(NC(=O)OCCCCn1ccc(=O)[nH]c1=O)C(=O)O (centres undefined)
inactive: Hs-578T > 100 µM | IGROV-1 > 100 µM | SN12C > 100 µM | BT-549 > 100 µM | MDA-MB-231 > 100 µM | K562 > 100 µM | HOP-62 > 100 µM | UACC-257 > 100 µM | SR > 100 µM | HCC 2998 > 100 µM | SK-OV-3 > 100 µM | PC-3 > 100 µM | SNB-19 > 100 µM | NCI-H23 > 100 µM | RPMI-8226 > 100 µM | SF-539 > 100 µM | TK-10 > 100 µM | MDA-N > 100 µM | HL-60 > 100 µM

O=C1NN=C(c2ccc(Cl)cc2)CC1C1C(=O)N(c2ccccc2)N=C1c1ccccc1 (centres undefined)
inactive: Hs-578T 18.8 µM | IGROV-1 35.7 µM | SN12C 34.4 µM | BT-549 20 µM | MDA-MB-231 35.9 µM | A498 26.2 µM | K562 30 µM | HOP-62 32 µM | SR 93.1 µM | HCC 2998 26.8 µM | SK-OV-3 39.5 µM | PC-3 22.2 µM | SNB-19 33.8 µM | NCI-H23 23.3 µM | RPMI-8226 37.1 µM | SF-539 25.9 µM | TK-10 35.6 µM | MDA-N 34.8 µM | HL-60 37.2 µM

COc1ccc(-n2c(C)nc3ccc(NC4OCC(OC(C)=O)C(OC(C)=O)C4OC(C)=O)cc3c2=O)cc1 (centres undefined)
inactive: Hs-578T > 100 µM | IGROV-1 > 100 µM | SN12C > 100 µM | BT-549 > 100 µM | MDA-MB-231 > 100 µM | A498 > 100 µM | K562 > 100 µM | HOP-62 > 100 µM | UACC-257 > 100 µM | SR > 100 µM | HCC 2998 97.1 µM | PC-3 > 100 µM | SNB-19 > 100 µM | NCI-H23 > 100 µM | RPMI-8226 35.9 µM | TK-10 > 100 µM | MDA-N > 100 µM | HL-60 32.4 µM
